We go through 3 compounds from ChEMBL document CHEMBL1150289, “Petiolins A-C, phloroglucinol derivatives from Hypericum pseudopetiolatum var. kiusianum” (Bioorg Med Chem, 2008).

Converted amounts (≈) assume the structure as drawn. Bounds are passed on as bounds.

The subject of one experiment is L1210. Put plainly: Cytotoxicity against mouse L1210 cells. Type of experiment: functional, cell-based.
The test system of a further experiment is KB. The experiment in a line: Cytotoxicity against human KB cells. It is filed as functional, cell-based.
Experiment [1] deals with Trichophyton mentagrophytes. The experiment in a line: Antifungal activity against Trichophyton mentagrophytes. Type of experiment: functional.

Usually IC50 stands for the midpoint of a concentration-inhibition curve. Read a low IC50 as inhibition by little substance. Regarding `CC(C)=CCCC1(C)C=CC2=C(O1)C(C)(C)C(=O)C(C(=O)C(C)C)=C2O` (configuration not stated) [PETIOLIN A], the IC50 in the experiment with L1210 came to 2.5 µg/mL (≈ 6.97 µM); in the experiment with KB it was 4.8 µg/mL (≈ 13.4 µM).

With `CCC(C)C(=O)C1=C(O)C2=C(OC(C)(CCC=C(C)C)C=C2)C(C)(C)C1=O` (configuration not stated) [PETIOLIN B], the results for the IC50 in the experiment with L1210 and with KB were more than 10 µg/mL and 9.6 µg/mL (≈ 25.8 µM), respectively.

Broadly, the MIC is the lowest concentration that inhibits growth of the organism. A lower MIC goes with inhibition by little substance. `CC(C)=CCC[C@@](C)(O)[C@@H]1CC2=C(O1)/C(=C(/O)C(C)C)C(=O)C(C)(C)C2=O` [PETIOLIN C]: the IC50 was 3.3 µg/mL (≈ 8.77 µM) with L1210 and 4.9 µg/mL (≈ 13 µM) in the experiment with KB. In addition, the minimal inhibitory concentration (MIC) in experiment [1] turned out to be 33.3 µg/mL (≈ 88.4 µM).
